Data set [1] can be described thus: Extraction by HDEHP as a function of pH with hold-back reagent. As for the experimental part: (§1) All liquid-liquid extractions were conducted using a 1:1 organic to aqueous phase ratio for a total volume of 1 mL. Samples were pH adjusted by HNO3 and prepared for a final concentration of 1.0 M sodium lactate, 40 mM of hold-back reagent (160 mM in the case of the HOPO monomer), and 2.0 M Na^+. The concentration of the trivalent f-element was dependent on the availability and radioactivity of the isotopes. The organic phase consisted of 0.5 M HDEHP in kerosene. All samples were incubated in a thermostatic shaker held at 28° C. and rocked at 280 rpm for 90 minutes. To ensure complete phase separation, samples were left overnight at room temperature to equilibrate. Radioactive samples were analyzed by liquid scintillation counting (LSC). The analytical protocol consisted of diluting 10 uL of radioactive sample into 10 mL of Ultima Gold™. Ultima Gold™ is a commercially available analytical reagent commonly used for LSC. The resulting analytical samples were shaken for 10 min prior to counting on a Perkin-Elmer Packard Tri-Carb instrument (model B4430).
(§2) Data was analyzed by the distribution ratio (Dm), separation factor (SFm1/m2) and extraction percentage (% Extraction) as defined by Equations (6), (7) and (8), respectively. Equation (8) uses concentrations of the metal in each phase since the aqueous: organic ratio was 1. Both the organic and aqueous phases were analyzed after liquid-liquid extraction and phase separation. These calculation methods rely on the assumptions that no metal (M) is lost to sorption or precipitation and that no volume variation occurred during the mass transfer between the aqueous and organic phases.
(§3) In FIG. 23, aqueous phase: [ligand]=40 mM, buffer sodium lactate/sodium nitrate. Organic phase: [HDEHP]=0.5 M, kerosene diluent. T=25° C. O/A=1, one contact. Initial metal concentrations: [Ac-225]=0.4 nM, [Am-243]=40.4 nM, or [Gd]=500 μM (spiked with Gd-153 for LSC measurements).
In FIG. 17, aqueous phase: [ligand]=40 mM, buffer sodium lactate/sodium nitrate, organic phase: [HDEHP]=0.5 M, kerosene diluent. T=25° C. O/A=1, one contact. Initial metal concentrations: [Ac-225]=0.4 nM, [Am-243]=40.4 nM, or [Gd]=500 μM (spiked with Gd-153 for LSC measurements). Separation factor=ratio M1/M2 in the final organic phase/ratio M1/M2 in the initial aqueous phase. […]

Assay in data set [2]: as above
As for the experimental part:
as §1, §2, §3
This is another data set of the same source.

A short description of data set [3]: Extraction by HDEHP with 1 mM 343HOPO in 0.1 M HNO3 and 1.9 M NaNO3. As for the experimental part: Aqueous phase: 1 mM 343HOPO in 0.1 M HNO3 and 1.9 M NaNO3. Organic phase: HDEHP in kerosene.
A log scale is used for clarity. See FIGS. 58A and 58B for results as a function of the phase ratio.
For Example 20—Example 24, pH measurements were performed with a glass electrode (Metrohm-Micro Combi-response to [H+]) calibrated at 25.0° C. using three NIST standards. Extraction samples were analyzed by liquid scintillation counting (LSC). The distribution coefficient, D(M), of a given metal, M, is defined in Eq. 1, where [M]organic and [M]aqueous are the respective total concentrations of M in the organic and aqueous layers, after extraction. Both concentrations are proportional to the volumetric activity (in Bq/L) determined by LSC. The separation factor, SFM1/M2, between two metals, M1 and M2, and extraction yield were calculated according to Eq. 2 and Eq. 3, respectively.
In a typical experiment, the solvent (extractant diluted in kerosene) was pre-conditioned by shaking one volume of solvent with three volumes of aqueous phase (typically HNO3) at room temperature for 1 h, thrice. For radioisotope extractions, at least 400 μL aqueous phase (typically containing HNO3, a chelator and a radioisotope) and solvent were placed in air-tight screw-capped plastic tubes, triply-contained, and shaken in a thermoshaker at 300 rpm, 25° C., for at least 30 min. Samples were then centrifuged for 5 min at 3000 rpm and phases separated before analysis. LSC analyses were performed on a Packard Tri-Carb B4430 instrument (Perkin Elmer) after mixing sample aliquots or sample dilution aliquots (10 to 200 μL) with 10 mL of scintillation cocktail (UltimaGold LLT). Samples were counted for at least 6 min and results were background subtracted. The analytical samples contained between 0 and 800,000 CPM. Mixtures of ^249Bk and ^249Cf were analyzed using α/β discrimination and energy windows were set to 0-50 keV for low-energy β particles of ^249Bk and 50-1000 keV for α particles of ^249Cf. ^243Am and ^225Ac samples were counted at secular equilibrium.

For data set [4] the following is noted: Eu(III), cited from earlier work.
The conditions of data set [5]: cited from earlier work.
Setting [6] is: highest value reached, HDEHP/343HOPO-HNO3 system.

SMILES strings stand for the structures. Where two headings read alike, the source gives them in different places.

As to `O=C(NCCCN(CCCCN(CCCNC(=O)c1cccc(=O)n1O)C(=O)c1cccc(=O)n1O)C(=O)c1cccc(=O)n1O)c1cccc(=O)n1O` [3,4,3-LI(1,2-HOPO)], the SFAc/Am in data set [1] (setting [6]) was 130,000; in data set [1] (pH 0.9 (±0.1)), 3.99 * 10^2; in data set [1] (pH 1.5 (±0.1)), 9.06 * 10^3; in data set [1] (pH 3.5 (±0.1)), 8.13 * 10^4; in data set [1] (pH 4.0 (±0.1)), 1.28 * 10^5. Further, the SFAc/Gd in data set [1] (setting [6]) is reported as 1,300,000; in data set [1] (pH 1.5 (±0.1)), 6.55 * 10^2; in data set [1] (pH 3.5 (±0.1)) it was 4.61 * 10^5; in data set [1] (pH 4.0 (±0.1)), 1.33 * 10^6. Moreover, the extraction of actinium result in data set [1] (pH higher than 1.5, 40 mM ligand, 0.5 M HDEHP) was “quantitative extraction”. The SFAc/Pu result in data set [1] (single step, initial Pu/Ac ratio ~10,000 mol/mol, 40 mM chelator, 0.5 M HDEHP) is “at least 1,000,000”. The “separation factor between Ac and relevant metal impurities” value in data set [1] (summary statement) is reported as 10^6. Besides, in data set [2] (pH higher than 1, 40 mM ligand, 0.5 M HDEHP), the “extraction of Am^3+” value is recorded as “No extraction”. In addition, the SFBk/Lu in data set [3] (single step, room temperature, HDEHP-HNO3-343HOPO system) was ≤ 320,000. Besides, the “log β111” value in data set [4] (I=0.1 M at 25° C.) is 24.8. Besides, the “Last pKa” value in data set [5] is reported as 6.64. Also, the “overall acidity (ΣpKa)” value in data set [5] (literature value compared with ΣpKa5-8 of 3,4,3-LI(CAM)) is recorded as 21.2.
Turning to `O=C(O)CN(CCN(CC(=O)O)CC(=O)O)CCN(CC(=O)O)CC(=O)O` [DTPA, Diethylenetriaminepentaacetic acid, reference compound], in data set [1] (HDEHP/DTPA-HNO3 system), the SFAm/Ac result is given as “below 10”. The SFGd/Ac in data set [1] (HDEHP/DTPA-HNO3 system) is reported as < 5,300. The “maximum metal extraction of Ac(III)” value in data set [1] (around pH 1.5) stood at 49%. In data set [1] (at pH 4), the “extraction of Ac(III)” value was “less than 10%”. The SFAc/Gd in data set [1] (pH 0.8 (±0.1)), in data set [1] (pH 1.5 (±0.1)), in data set [1] (pH 3.5 (±0.1)) and in data set [1] (pH 4.0 (±0.1)) was <10^−3 each time. The SFAc/Am is given as 5.83 * 10^−2 in data set [1] (pH 0.9 (±0.1)), 2.70 * 10^−1 in data set [1] (pH 1.5 (±0.1)), 6.86 * 10^−2 in data set [1] (pH 3.5 (±0.1)) and 1.11 * 10^−1 in data set [1] (pH 4.0 (±0.1)). For the same compound, in data set [2] (around pH 1.5), the “maximum metal extraction of Am(III)” value is given as 78%. In addition, in data set [2] (at pH 4), the “extraction of Am(III)” value is given as “less than 10%”. In addition, the “Extraction of Gd(III)” value in data set [2] (until after pH 4) was “above 90%”. Also, the “separation between Bk and Cf” value in data set [3] (chelator in place of 343HOPO, acidic conditions) is given as “no separation at all”. Besides, the “log β111” value in data set [4] (I=2.0 M at 25° C.) is listed as 22.56. In data set [5], the “Last pKa” value is given as 10.4.
